Calls of active or inactive are those of the source.
Experiments:
[1] = molecular target: Transient receptor potential cation channel subfamily A member 1 (Mus musculus) (UniProt Q8BLA8); assay: Desensitization of mouse TRPA1 expressed in HEK293T cells assessed as time constant (tau) at 200 uM in presence of Ca2+ containing solution by whole cell patch clamp recording; assay type: cell-based; settings: filed as agonist
[2] = test system: Mus musculus; assay: Antinociceptive activity in acetic-acid induced wildtype male C57BL/6J mouse model of visceral pain assessed as reduction in abdominal writhing at 20 mg/kg, po preadministered for 30 mins followed by acetic acid challenge and measured after 15 mins; assay type: functional, organism-based
[3] = test system: Mus musculus; assay: Antinociceptive activity in acetic-acid induced TRPA1 knock-out mouse model of visceral pain assessed as reduction in abdominal writhing at 20 mg/kg, po preadministered for 30 mins followed by acetic acid challenge and measured after 15 mins; assay type: functional, organism-based
[4] = test system: Mus musculus; assay: Antinociceptive activity in wildtype female C57BL/6J mouse model of thermal pain assessed as paw withdrawal latency time at 20 mg/kg, po preadministered for 30 mins followed by exposure to 55 degreeC and measured immediately by hot plate test (reference value: 16.65 +/- 1.02 sec); assay type: functional; settings: 0.5 h
[5] = test system: Mus musculus; assay: Antinociceptive activity in wildtype female C57BL/6J mouse model of thermal pain assessed as paw withdrawal latency time at 20 mg/kg, po preadministered for 30 mins followed by exposure to 55 degreeC and measured after 30 mins by hot plate test (reference value: 11.83 +/- 1.25 sec); assay type: functional; settings: time 60 min, 1 h
[6] = test system: Mus musculus; assay: Antinociceptive activity in wildtype female C57BL/6J mouse model of thermal pain assessed as paw withdrawal latency time at 20 mg/kg, po preadministered for 30 mins followed by exposure to 55 degreeC and measured after 60 mins by hot plate test (reference value: 13.65 +/- 0.69 sec); assay type: functional; settings: time 90 min, 1.5 h
[7] = test system: Mus musculus; assay: Antinociceptive activity in wildtype female C57BL/6J mouse model of thermal pain assessed as paw withdrawal latency time at 20 mg/kg, po preadministered for 30 mins followed by exposure to 55 degreeC and measured after 120 mins by hot plate test (reference value: 15.65 +/- 1.22 sec); assay type: functional; settings: time 150 min
[8] = test system: Mus musculus; assay: Antinociceptive activity in wildtype female C57BL/6J mouse model of thermal pain assessed as paw withdrawal latency time at 20 mg/kg, po preadministered for 30 mins followed by exposure to 55 degreeC and measured after 4 hrs by hot plate test (reference value: 17.41 +/- 1.18 sec); assay type: functional
[9] = test system: Mus musculus; assay: Effect on mechanical allodynia in male C57BL/6J mouse assessed as paw withdrawal mechanical threshold at 20 mg/kg, po administered for 30 mins (reference value: 1.77 +/- 0.21 g); assay type: functional; settings: 0.5 h
[10] = test system: Mus musculus; assay: Antinociceptive activity in CFA-induced male C57BL/6J mouse model of inflammatory pain assessed as paw withdrawal mechanical threshold at 20 mg/kg, po challenged with CFA for 24 hrs followed by compound administration for 30 mins and measured immediately (reference value: 0.47 +/ 0.14 g); assay type: functional; settings: 0.5 h
[11] = test system: Mus musculus; assay: Antinociceptive activity in CFA-induced male C57BL/6J mouse model of inflammatory pain assessed as paw withdrawal mechanical threshold at 20 mg/kg, po challenged with CFA for 24 hrs followed by compound administration for 30 mins and measured after 0.5 hrs (reference value: 0.39 +/- 0.05 g); assay type: functional; settings: time 1 hrs
[12] = test system: Mus musculus; assay: Antinociceptive activity in CFA-induced male C57BL/6J mouse model of inflammatory pain assessed as paw withdrawal mechanical threshold at 20 mg/kg, po challenged with CFA for 24 hrs followed by compound administration for 30 mins and measured after 1 hrs (reference value: 0.22 +/- 0.03 g); assay type: functional; settings: time 1.5 hrs
[13] = test system: Mus musculus; assay: Antinociceptive activity in CFA-induced male C57BL/6J mouse model of inflammatory pain assessed as paw withdrawal mechanical threshold at 20 mg/kg, po challenged with CFA for 24 hrs followed by compound administration for 30 mins and measured after 2 hrs (reference value: 0.55 +/- 0.13 g); assay type: functional
[14] = test system: Mus musculus; assay: Antinociceptive activity in CFA-induced male C57BL/6J mouse model of inflammatory pain assessed as paw withdrawal mechanical threshold at 20 mg/kg, po challenged with CFA for 24 hrs followed by compound administration for 30 mins and measured after 4 hrs (reference value: 0.47 +/- 0.10 g); assay type: functional
[15] = molecular target: T1, Transient receptor potential cation channel subfamily A member 1 (Homo sapiens, UniProt O75762); assay: Irreversible binding affinity to TRPA1 (unknown origin); settings: filed as agonist
T1 sequence (O75762 whole entry): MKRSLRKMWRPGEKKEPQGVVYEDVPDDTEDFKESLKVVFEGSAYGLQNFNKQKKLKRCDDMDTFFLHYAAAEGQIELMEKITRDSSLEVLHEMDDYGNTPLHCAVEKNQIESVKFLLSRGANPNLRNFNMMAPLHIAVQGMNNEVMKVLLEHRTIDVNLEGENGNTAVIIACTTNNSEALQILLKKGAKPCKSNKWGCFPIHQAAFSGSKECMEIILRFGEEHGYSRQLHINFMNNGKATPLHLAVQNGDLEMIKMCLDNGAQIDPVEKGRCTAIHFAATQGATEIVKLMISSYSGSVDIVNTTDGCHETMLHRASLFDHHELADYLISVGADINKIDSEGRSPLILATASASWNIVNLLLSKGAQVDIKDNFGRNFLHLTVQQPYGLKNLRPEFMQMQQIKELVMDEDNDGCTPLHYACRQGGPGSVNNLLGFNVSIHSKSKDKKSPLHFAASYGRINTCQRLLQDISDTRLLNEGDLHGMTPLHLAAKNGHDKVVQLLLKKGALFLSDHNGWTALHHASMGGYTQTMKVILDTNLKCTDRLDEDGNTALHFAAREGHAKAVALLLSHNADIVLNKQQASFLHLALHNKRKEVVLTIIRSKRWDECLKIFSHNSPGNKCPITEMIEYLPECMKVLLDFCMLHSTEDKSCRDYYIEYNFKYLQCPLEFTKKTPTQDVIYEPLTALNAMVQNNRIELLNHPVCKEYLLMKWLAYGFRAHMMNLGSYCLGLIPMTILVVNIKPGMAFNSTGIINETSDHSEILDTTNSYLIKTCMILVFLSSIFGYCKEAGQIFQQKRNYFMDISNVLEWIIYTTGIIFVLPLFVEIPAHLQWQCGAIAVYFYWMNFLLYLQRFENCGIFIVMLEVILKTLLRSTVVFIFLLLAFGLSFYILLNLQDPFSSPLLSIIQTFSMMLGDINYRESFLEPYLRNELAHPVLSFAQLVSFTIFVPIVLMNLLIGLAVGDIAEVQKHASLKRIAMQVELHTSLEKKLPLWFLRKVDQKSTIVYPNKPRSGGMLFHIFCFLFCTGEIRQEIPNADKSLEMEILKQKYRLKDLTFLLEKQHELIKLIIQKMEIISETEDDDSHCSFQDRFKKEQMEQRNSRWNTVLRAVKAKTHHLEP

[16] = molecular target: T1, Transient receptor potential cation channel subfamily A member 1; assay: Agonist activity at human TRPA1 expressed in HEK293T cells by whole cell patch clamp recordings; assay type: cell-based
[17] = molecular target: Transient receptor potential cation channel subfamily A member 1 (Mus musculus, UniProt Q8BLA8); assay: Agonist activity at mouse TRPA1 expressed in HEK293T cells by whole cell patch clamp recordings; assay type: cell-based
Chain of Transient receptor potential cation channel subfamily A member 1 (Mus musculus, UniProt Q8BLA8) (Q8BLA8 whole entry): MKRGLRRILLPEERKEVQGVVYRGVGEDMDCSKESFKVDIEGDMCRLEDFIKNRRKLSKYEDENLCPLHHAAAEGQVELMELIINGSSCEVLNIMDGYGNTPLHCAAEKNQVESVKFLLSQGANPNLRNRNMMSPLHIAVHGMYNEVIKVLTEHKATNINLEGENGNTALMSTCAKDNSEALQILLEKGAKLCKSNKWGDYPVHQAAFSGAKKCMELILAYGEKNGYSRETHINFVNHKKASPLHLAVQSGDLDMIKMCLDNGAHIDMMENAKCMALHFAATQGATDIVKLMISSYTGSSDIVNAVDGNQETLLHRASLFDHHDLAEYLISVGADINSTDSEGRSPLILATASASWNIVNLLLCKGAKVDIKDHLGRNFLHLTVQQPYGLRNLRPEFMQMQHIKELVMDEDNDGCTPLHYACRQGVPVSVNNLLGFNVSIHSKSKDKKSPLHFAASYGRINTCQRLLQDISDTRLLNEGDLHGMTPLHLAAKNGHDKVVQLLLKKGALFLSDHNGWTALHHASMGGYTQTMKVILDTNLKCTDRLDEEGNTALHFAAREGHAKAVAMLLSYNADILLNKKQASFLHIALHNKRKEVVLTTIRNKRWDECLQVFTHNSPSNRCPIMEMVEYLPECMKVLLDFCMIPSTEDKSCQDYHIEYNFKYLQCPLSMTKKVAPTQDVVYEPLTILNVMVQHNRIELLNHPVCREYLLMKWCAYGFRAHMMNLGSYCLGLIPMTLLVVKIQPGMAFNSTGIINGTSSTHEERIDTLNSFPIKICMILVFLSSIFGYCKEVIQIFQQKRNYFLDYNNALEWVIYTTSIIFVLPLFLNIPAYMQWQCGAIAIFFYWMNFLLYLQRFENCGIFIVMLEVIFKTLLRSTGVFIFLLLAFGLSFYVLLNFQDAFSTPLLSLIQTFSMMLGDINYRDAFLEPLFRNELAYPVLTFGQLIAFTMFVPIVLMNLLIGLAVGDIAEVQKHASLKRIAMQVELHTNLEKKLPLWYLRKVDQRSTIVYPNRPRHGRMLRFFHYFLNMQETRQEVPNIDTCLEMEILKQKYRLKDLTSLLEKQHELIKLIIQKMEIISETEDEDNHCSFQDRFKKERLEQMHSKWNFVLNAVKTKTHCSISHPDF

[18] = Selectivity ratio of EC50 for agonist activity at mouse TRPA1 expressed in HEK293T cells to EC50 for agonist activity at human TRPA1 expressed in HEK293T cells; assay type: cell-based
[19] = Toxicity in wildtype C57BL/6J mouse assessed as irritation at 1 %, SC administered via hind paw and measured within 45 mins; settings: in vivo, 0.75 h
[20] = Toxicity in wildtype C57BL/6J mouse assessed as irritation at 0.3 %, SC administered via hind paw and measured within 45 mins; settings: in vivo, 0.75 h
[21] = test system: Mus musculus; assay: Antinociceptive activity in TRPA1 knock-out mouse model of thermal pain assessed as increase in paw lick latency at 20 mg/kg, po preadministered for 30 mins followed by exposure to 55 degreeC and measured up to 4 hrs by hot plate test; assay type: functional, organism-based
[22] = molecular target: T1, Transient receptor potential cation channel subfamily A member 1; assay: Agonist activity at human TRPA1 expressed in HEK293T cells assessed as increase in channel opening by measuring single channel conductance at 30 uM in presence of A-967079 by single-channel recordings; assay type: cell-based; settings: filed as agonist
[23] = molecular target: T1, Transient receptor potential cation channel subfamily A member 1; assay: Agonist activity at human TRPA1 expressed in HEK293T cells assessed as increase in channel opening by measuring open probability at 30 uM in presence of A-967079 by single-channel recordings; assay type: cell-based; settings: filed as agonist

Chain of Transient receptor potential cation channel subfamily A member 1 (Mus musculus) (Q8BLA8 whole entry): as above

Compound: S=C=NCc1ccccc1
- TIME [1]: 0.0179 h

Compound: CC(C)Cc1ccc(C(C)C(=O)O)cc1 (stereo not given) [IBUPROFEN]
- Activity [2]: Active
- Activity [3]: Active
- Time [4]: 15.72 s
- Time [5]: 20.73 s
- Time [6]: 31.26 s
- Time [7]: 15.46 s
- Time [8]: 14.03 s
- Activity [9]: 1.84 g
- Activity [10]: 0.22 g
- Activity [11]: 1.2 g
- Activity [12]: 1.32 g
- Activity [13]: 0.69 g
- Activity [14]: 0.42 g

Compound: COCCCNc1cc(-c2ccc(C)cc2)cs1
- Activity [15]: Active

Compound: COCCCN(C(=O)CCl)c1nc(-c2ccc(OC)cc2)cs1
- EC50 [16]: 6.48 nM
- EC50 [17]: 5260 nM
- Ratio EC50 [18]: 1000
- Activity [19]: Toxic
- Activity [20]: Non-toxic
- Activity [21]: Active

Compound: CCCCCNc1nc(-c2ccc(O)cc2)cs1
- Activity [15]: Active

Compound: C=CCN=C=S [ALLYL ISOTHIOCYANATE]
- Activity [22]: 102 pS
- Activity [23]: 0.15
- Activity [19]: Toxic

Reference: ChEMBL document CHEMBL6182893, “Discovery of non-electrophilic TRPA1 channel agonists with anti-nociceptive effects via rapid current desensitization” (Eur J Med Chem, 2025)
